# Assay results reported in US9890147B2 (BAYER PHARMA AKTIENGESELLSCHAFT, priority 2012, dated 2018).
# What was measured:
# BRD4 (BD1) = target: T1, BRD4 (BD1) (Homo sapiens, UniProt O60885); experiment: Binding assay BRD4/acetylated peptide H4 (TR-FRET protein-protein interaction assay)
# T1 construct: with relatively long constructs also being possible, preferably amino acids 44-168; made in house; host or cells: E. coli
# In short: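 Displacement of biotin-Ac-H4 peptide from His6-tagged BRD4(BD1), final usually 10 nM, read as Eu-streptavidin to anti-His-XL665 TR-FRET (665/620 nm). Compounds tested at 11 doses up to 20 μM in duplicate, pH 7.5 HEPES, 22 °C then 4 °C incubation; IC50 by 4-parameter regression.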
# MOLM-13 cells = experiment: Cell proliferation assay (alamarBlue), MOLM-13; type: cell-based; details: Homo sapiens, 96 hours incubation, inhibition of cell proliferation
# In short: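 IC50 = concentration giving 50% growth inhibition relative to buffer-treated cells, after subtracting baseline fluorescence taken before dosing. Compound applied at 1E-5 to 1E-8 M for 96 h at 37 °C in RPMI1640 with 10% FCS; alamarBlue signal at 530/590 nm.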
SMILES,IC50 (BRD4 (BD1)) [nM],IC50 (MOLM-13 cells) [nM]
"CNC(=O)N1N=C(c2ccc(-n3cnnn3)cc2)c2cc(OC)ccc2C[C@@H]1C [Example 30, (4S)-8-Methoxy-N,4-dimethyl-1-[4-(1H-tetrazol-1-yl)phenyl]-4,5-dihydro-3H-2,3-benzodiazepine-3-carboxamide]",230,790
"CNC(=O)N1N=C(c2ccc(-c3cnc(OC)nc3)cc2)c2cc(OC)c(OC)cc2CC1C (racemic) [Example 74, (±)-7,8-dimethoxy-1-[4-(2-methoxypyrimidin-5-yl)phenyl]-N,4-dimethyl-4,5-dihydro-3H-2,3-benzodiazepine-3-carboxamide]",80,550
"CNC(=O)N1N=C(c2ccc(-c3ccc(-c4ccc(Cl)s4)cc3)cc2)c2cc(OC)c(OC)cc2CC1C (racemic) [Example 88, (±)-1-[4′-(5-chlorothien-2-yl)biphenyl-4-yl]-7,8-dimethoxy-N,4-dimethyl-4,5-dihydro-3H-2,3-benzodiazepine-3-carboxamide]",290,670
"CNC(=O)N1N=C(c2ccc(N3CCN(C)CC3=O)cc2)c2cc(OC)c(OC)cc2CC1C (racemic) [Example 43, (±)-7,8-dimethoxy-N,4-dimethyl-1-[4-(4-methyl-2-oxopiperazin-1-yl)phenyl]-4,5-dihydro-3H-2,3-benzodiazepine-3-carboxamide]",300,840
"CNC(=O)N1N=C(c2ccc(-c3cc(O)cc(F)c3)cc2)c2cc(OC)c(OC)cc2CC1C (racemic) [Example 119, (±)-1-(3′-fluoro-5′-hydroxybiphenyl-4-yl)-7,8-dimethoxy-N,4-dimethyl-4,5-diliydro-3H-2,3-benzodiazepine-3-carboxamide]",90,410
"CNC(=O)N1N=C(c2cccc(N3CC(F)(F)C3)c2)c2cc(OC)c(OC)cc2CC1C (racemic) [Example 141, (±)-1-[3-(3,3-difluoroazetidin-1-yl)phenyl]-7,8-dimethoxy-N,4-dimethyl-4,5-dihydro-3H-2,3-benzodiazepine-3-carboxamide]",70,550
"CNC(=O)N1N=C(c2ccc(N3CCNCC3=O)cc2)c2cc(OC)c(OC)cc2CC1C (racemic) [Example 44, (±)-7,8-Dimethoxy-N,4-dimethyl-1-[4-(2-oxopiperazin-1-yl)phenyl]-4,5-dihydro-3H-2,3-benzodiazepine-3-carboxamide]",50,210
"CNC(=O)N1N=C(c2ccc(-c3c(C)nn(C)c3C)cc2)c2cc(OC)c(OC)cc2C[C@H]1C [Example 51.1, (4R)-7,8-dimethoxy-N,4-dimethyl-1-[4-(1,3,5-trimethyl-1H-pyrazol-4-yl)phenyl]-4,5-dihydro-3H-2,3-benzodiazepine-3-carboxamide]",1860,> 10000
"CNC(=O)N1N=C(c2ccc(-c3ccc(F)cc3)cc2)c2cc(OC)c(OC)cc2CC1C (racemic) [Example 62, (±)-1-(4′-fluorobiphenyl-4-yl)-7,8-dimethoxy-N,4-dimethyl-4,5-dihydro-3H-2,3-benzodiazepine-3-carboxamide]",60,650
"CCc1cc(C2CC2)n(-c2ccc(C3=NN(C(=O)NC)[C@@H](C)Cc4ccc(OC)cc43)cc2)n1 [Example 25, (4S)-1-[4-(5-cyclopropyl-3-ethyl-1H-pyrazol-1-yl)phenyl]-8-methoxy-N,4-dimethyl-4,5-dihydro-3H-2,3-benzodiazepine-3-carboxamide]",160,740
"CNC(=O)N1N=C(c2ccc(-c3cccc(S(N)(=O)=O)c3)cc2)c2cc(OC)c(OC)cc2CC1C (racemic) [Example 114, (±)-7,8-dimethoxy-N,4-dimethyl-1-(3′-sulphamoylbiphenyl-4-yl)-4,5-dihydro-3H-2,3-benzodiazepine-3-carboxamide]",40,300
"CNC(=O)N1N=C(c2ccc(-c3ccc(C)nc3)cc2)c2cc(OC)c(OC)cc2CC1C (racemic) [Example 117, (±)-7,8-dimethoxy-N,4-dimethyl-1-[4-(6-methylpyridin-3-yl)phenyl]-4,5-dihydro-3H-2,3-benzodiazepine-3-carboxamide]",50,380
"CNC(=O)N1N=C(c2ccc(-c3cc(C)cc(F)c3)cc2)c2cc(OC)c(OC)cc2CC1C (racemic) [Example 120, (±)-1-(3′-fluoro-5′-methylbiphenyl-4-yl)-7,8-dimethoxy-N,4-dimethyl-4,5-dihydro-3H-2,3-benzodiazepine-3-carboxamide]",190,800
"CNC(=O)N1N=C(c2ccc(-c3ccc(C(F)(F)F)nc3)cc2)c2cc(OC)c(OC)cc2CC1C (racemic) [Example 50, (±)-7,8-dimethoxy-N,4-dimethyl-1-{4-[6-(trifluoromethyl)pyridin-3-yl]phenyl}-4,5-dihydro-3H-2,3-benzodiazepine-3-carboxamide]",150,560
"CNC(=O)N1N=C(c2ccc(N3CC(F)C3)cc2)c2cc(OC)c(OC)cc2C[C@H]1C [Example 129.1, (4R)-1-[4-(3-fluoroazetidin-1-yl)phenyl]-7,8-dimethoxy-N,4-dimethyl-4,5-dihydro-3H-2,3-benzodiazepine-3-carboxamide]",6620,> 10000
"CNC(=O)N1N=C(c2ccc(-c3cncc(OC)c3)cc2)c2cc(OC)c(OC)cc2CC1C (racemic) [Example 80, (±)-7,8-dimethoxy-1-[4-(5-methoxypyridin-3-yl)phenyl]-N,4-dimethyl-4,5-dihydro-3H-2,3-benzodiazepine-3-carboxamide]",50,560
"CNC(=O)N1N=C(c2ccc(-c3cccc([N+](=O)[O-])c3)cc2)c2cc(OC)c(OC)cc2CC1C (racemic) [Example 59, (±)-7,8-dimethoxy-N,4-dimethyl-1-(3′-nitrobiphenyl-4-yl)-4,5-dihydro-3H-2,3-benzodiazepine-3-carboxamide]",70,620
"CNC(=O)N1N=C(c2ccc(-c3cn(C)nn3)cc2)c2cc(OC)c(OC)cc2C[C@@H]1C [Example 45.1, (4S)-7,8-dimethoxy-N,4-dimethyl-1-[4-(1-methyl-1H-1,2,3-triazol-4-yl)phenyl]-4,5-dihydro-3H-2,3-benzodiazepine-3-carboxamide]",70,220

# The next lines start with the values.
IC50 (BRD4 (BD1)) [nM],IC50 (MOLM-13 cells) [nM],SMILES
130,120,"CNC(=O)N1N=C(c2ccc(-c3c(C)noc3C)cc2)c2cc(Cl)c(OC)cc2C[C@@H]1C [Example 157.1, (4S)-8-chloro-1-[4-(3,5-dimethylisoxazol-4-yl)phenyl]-7-methoxy-N,4-dimethyl-4,5-dihydro-3H-2,3-benzodiazepine-3-carboxamide]"
90,80,"CNC(=O)N1N=C(c2ccc(N3CC[C@H](O)C3)cc2)c2cc(OC)c(OC)cc2CC1C (mixture of isomers) [Example 190, (±)-1-{4-[(3S)-3-hydroxypyrrolidin-1-yl]phenyl}-7,8-dimethoxy-N,4-dimethyl-4,5-dihydro-3H-2,3-benzodiazepine-3-carboxamide]"
370,190,"CC[C@H]1Cc2cc(OC)c(OC)cc2C(c2ccc(N3CCOCC3)cc2)=NN1C(=O)NC [Example 209, (4S)-4-ethyl-7,8-dimethoxy-N-methyl-1-[4-(morpholin-4-yl)phenyl]-4,5-dihydro-3H-2,3-benzodiazepine-3-carboxamide]"
30,70,"CNC(=O)N1N=C(c2ccc(N3CCC(C)(O)CC3)cc2)c2cc(OC)c(OC)cc2C[C@@H]1C [Example 188.2, (4S)-1-[4-(4-hydroxy-4-methylpiperidin-1-yl)phenyl]-7,8-dimethoxy-N,4-dimethyl-4,5-dihydro-3H-2,3-benzodiazepine-3-carboxamide]"
840,3310,"CCC1Cc2cc(OC)c(OC)cc2C(c2ccc(N3CCN(S(C)(=O)=O)CC3)cc2)=NN1C(=O)NC (racemic) [Example 203, (±)-4-ethyl-7,8-dimethoxy-N-methyl-1-{4-[4-(methylsulphonyl)piperazin-1-yl]phenyl}-4,5-dihydro-3H-2,3-benzodiazepine-3-carboxamide]"
180,1210,"CNC(=O)N1N=C(c2ccc(-c3c(C)noc3C)cc2)c2cc(NC(C)=O)ccc2CC1C (racemic) [Example 173, (±)-8-Acetamido-1-[4-(3,5-dimethylisoxazol-4-yl)phenyl]-N,4-dimethyl-4,5-dihydro-3H-2,3-benzodiazepine-3-carboxamide]"
230,790,"CNC(=O)N1N=C(c2ccc(-c3c(C)noc3C)cc2)c2cc(OC(F)(F)F)c(Cl)cc2CC1C (racemic) [Example 156, (±)-7-Chloro-1-[4-(3,5-dimethylisoxazol-4-yl)phenyl]-N,4-dimethyl-8-(trifluoromethoxy)-4,5-dihydro-3H-2,3-benzodiazepine-3-carboxamide]"
130,1910,"CNC(=O)N1N=C(c2ccc(N3CCN(C)CC3)cc2)c2cc(NC(C)=O)ccc2CC1C (racemic) [Example 172, (±)-8-Acetamido-N,4-dimethyl-1-[4-(4-methylpiperazin-1-yl)phenyl]-4,5-dihydro-3H-2,3-benzodiazepine-3-carboxamide]"
70,430,"CNC(=O)N1N=C(c2ccc(-n3cncn3)cc2)c2cc(OC)c(OC)cc2CC1C (racemic) [Example 152, (±)-7,8-Dimethoxy-N,4-dimethyl-1-[4-(1H-1,2,4-triazol-1-yl)phenyl]-4,5-dihydro-3H-2,3-benzodiazepine-3-carboxamide]"
